Assay results taken from patent publication US20230293458A1, “MULTIBIOTIC AGENTS AND METHODS OF USING THE SAME” (Flagship Pioneering Innovations V, Inc., priority 2017, published 2023).

Tests used:
[1] = Stability of multibiotic agents in Simulated Intestinal Fluid (SIF); assay type: in vitro ADME; details: simulated intestinal fluid pH 6.7 with pancreatin, 37° C., 1 μM
Experimental: Assay 2. Stability of multibiotic agents in Simulated Intestinal Fluid (SIF). This assay can be used to assess the stability of a multibiotic agent in a small intestine. Phosphate buffer was prepared by dissolving 0.42 g of sodium hydroxide pellets and 3.95 g of monobasic sodium phosphate monohydrate and 6.19 g of sodium chloride in ultrapure water (MilliQ®, Millipore Sigma, Darmstadt, Germany). The pH was adjusted to 6.7 using aq. HCl and aq. NaOH, as necessary, and the solution was diluted with ultrapure water to produce 1 L of the pH 6.7 buffer. 112 mg FaSSIF powder (Biorelevant™, London, UK) was dissolved in 50 mL of the pH 6.7 buffer. 2 to 3 mL of the resulting solution were then added to 500 mg pancreatin (Millipore Sigma, Darmstadt, Germany). The resulting mixture was agitated by finger tapping the vessel containing the mixture until milky suspension formed. At this time, the remainder of the 50 mL FaSSiF/pH 6.7 buffer solution was added. The resulting suspension was flipped upside down 10 times to produce SIF, which was used fresh. Test compounds are dissolved in DMSO stock to 1 mM. An aliquot of the DMSO stock solution is removed and diluted in the SIF media in 15 mL falcon tubes to produce a mixture with a tested compound concentration of 1 μM. A 1 mL aliquot is immediately removed and diluted once with 1 volume of acetonitrile for T0 timepoint. The mixture is sealed and agitated at 37° C. in an incubator. Aliquots (1 mL) are removed at regular intervals and immediately quenched by the addition of 1 volume of acetonitrile. The resulting samples are analyzed by LC/MS to determine degradation rates.

[2] = Stability of multibiotic agents in Simulated Gastric Fluid (SGF); assay type: in vitro ADME; details: simulated gastric fluid pH 1.6 with pepsin, 37° C., 1 μM
Experimental: Assay 3. Stability of multibiotic agents in Simulated Gastric Fluid (SGF). This assay can be used to assess the stability of a multibiotic agent in a stomach.
Medium was prepared by dissolving 2 g of sodium chloride in 0.6 L in ultrapure water (MilliQ®, Millipore Sigma, Darmstadt, Germany). The pH was adjusted to 1.6 with 1 N hydrochloric acid, and the volume was then adjusted to 1 L with purified water.
60 mg FaSSIF powder (Biorelevant™, London, UK) were dissolved in 500 mL buffer (above). Pepsin was added (0.1 mg/mL) (Millipore Sigma, Darmstadt, Germany), and the solution was stirred. The resulting SGF media were used fresh for each experiment.
Test compounds were dissolved in DMSO stock to 1 mM. An aliquot of the DMSO stock solution was removed and diluted in the SGF Media in 15 mL falcon tubes to generate a total compound concentration of 1 μM. A 1 mL aliquot was immediately removed and diluted once with 1 volume of acetonitrile for T0 timepoint. The mixture was sealed and mixed at 37° C. in an incubator. Aliquots (1 mL) were removed at regular intervals and immediately quenched by the addition of 1 volume of acetonitrile. The resulting samples were analyzed by LC/MS to determine degradation rates in SGF.

Row | Compound | Assay 3 (SIF) (% @ Remaining 4 hours) [1] | Assay 2 (SGF) (% Remaining @ 4 hours) [2]
1 | CCCC(=O)O[C@H]1[C@H](OC(=O)CCC)[C@H](OC(=O)CCC)[C@@H](OC)[C@H](OC(=O)CCC)[C@H]1OC(=O)CCC [Example 85, (1R,2R,3R,4S,5R,6R)-2,3,4,6-tetrakis(butanoyloxy)-5-methoxycyclohexyl butanoate] | C (>75% of the tested compound remaining) | C (>75% of the tested compound remaining)
2 | CC(=O)OC[C@@H](OC(C)=O)[C@H]1OC[C@H](OC(C)=O)[C@H]1OC(C)=O [Example 86, [(2R)-2-acetoxy-2-[(2R,3R,4S)-3,4-diacetoxytetrahydrofuran-2-yl]ethyl] acetate] | C (>75% of the tested compound remaining) | C (>75% of the tested compound remaining)
3 | CCCC(=O)OC[C@@H](OC(=O)CCC)[C@H]1OC[C@H](OC(=O)CCC)[C@H]1OC(=O)CCC [Example 87, [(2R)-2-butanoyloxy-2-[(2R,3R,4S)-3,4-di (butanoyloxy)tetrahydrofuran-2-yl]ethyl] butanoate] | C (>75% of the tested compound remaining) | C (>75% of the tested compound remaining)
4 | CC(=O)O[C@H]1CO[C@H]2[C@@H]1OC[C@H]2OC(C)=O [Example 88, [(3S,3aR,6R,6aR)-6-acetoxy-2,3,3a,5,6,6a-hexahydrofuro[3,2-b]furan-3-yl] acetate] | C (>75% of the tested compound remaining) | C (>75% of the tested compound remaining)
5 | CC(=O)OCCCNC(=O)[C@H](OC(C)=O)C(C)(C)COC(C)=O [Example 89, 3-[[(2R)-2,4-diacetoxy-3,3-dimethyl-butanoyl]amino]propyl acetate] | C (>75% of the tested compound remaining) | C (>75% of the tested compound remaining)
6 | CCCC(=O)OCCCNC(=O)[C@H](OC(=O)CCC)C(C)(C)COC(=O)CCC [Example 90, 3-[[(2R)-2,4-di(butanoyloxy)-3,3-dimethyl-butanoyl]amino] propyl butanoate] | A (<25% of the tested compound remaining) | C (>75% of the tested compound remaining)
7 | CCCC(=O)O[C@H](C)CC(=O)OCCCNC(=O)[C@H](OC(=O)C[C@@H](C)OC(=O)CCC)C(C)(C)COC(=O)C[C@@H](C)OC(=O)CCC [Example 91, 3-[[(2R)-2,4-bis[[(3R)-3-butanoyloxybutanoyl]oxy]-3,3-dimethyl-butanoyl]amino]propyl (3R)-3-butanoyloxybutanoate] | A (<25% of the tested compound remaining) | C (>75% of the tested compound remaining)
8 | CC(C)(COC(=O)Cc1c[nH]c2ccccc12)[C@@H](OC(=O)Cc1c[nH]c2ccccc12)C(=O)NCCCOC(=O)Cc1c[nH]c2ccccc12 [Example 92, 3-[[(2R)-2,4-bis[[2-(1H-indol-3-yl)acetyl]oxy]-3,3-dimethyl-butanoyl]amino]propyl 2-(1H-indol-3-yl)acetate] | C (>75% of the tested compound remaining) | C (>75% of the tested compound remaining)
9 | CC(=O)OCC(C)(C)[C@@H](OC(C)=O)C(=O)NCCC(N)=O [Example 94, [(3R)-3-acetoxy-4-[(3-amino-3-oxo-propyl)amino]-2,2-dimethyl-4-oxo-butyl] acetate] | C (>75% of the tested compound remaining) | C (>75% of the tested compound remaining)
10 | CCCC(=O)OCC(C)(C)[C@@H](OC(=O)CCC)C(=O)NCCC(N)=O [Example 95, [(3R)-4-[(3-amino-3-oxo-propyl)amino]-3-butanoyloxy-2,2-dimethyl-4-oxo-butyl] butanoate] | C (>75% of the tested compound remaining) | C (>75% of the tested compound remaining)
11 | CCCC(=O)O[C@H](C)CC(=O)OCC(C)(C)[C@@H](OC(=O)C[C@@H](C)OC(=O)CCC)C(=O)NCCC(N)=O [Example 96, [(3R)-4-[(3-amino-3-oxo-propyl)amino]-3-[(3R)-3-butanoyloxybutanoyl]oxy-2,2-dimethyl-4-oxo-butyl] (3R)-3-butanoyloxybutanoate] | C (>75% of the tested compound remaining) | C (>75% of the tested compound remaining)
12 | CC(C)(COC(=O)Cc1c[nH]c2ccccc12)[C@@H](OC(=O)Cc1c[nH]c2ccccc12)C(=O)NCCC(N)=O [Example 97, [(3R)-4-[(3-amino-3-oxo-propyl)amino]-3-[2-(1H-indol-3-yl)acetyl]oxy-2,2-dimethyl-4-oxo-butyl] 2-(1H-indol-3-yl)acetate] | C (>75% of the tested compound remaining) | C (>75% of the tested compound remaining)
13 | CC(C)(COC(=O)CCc1c[nH]c2ccccc12)[C@@H](OC(=O)CCc1c[nH]c2ccccc12)C(=O)NCCC(N)=O [Example 98, [(3R)-4-[(3-amino-3-oxo-propyl)amino]-3-[3-(1H-indol-3-yl)propanoyloxy]-2,2-dimethyl-4-oxo-butyl] 3-(1H-indol-3-yl)propanoate] | A (<25% of the tested compound remaining) | C (>75% of the tested compound remaining)
14 | CC(=O)OCc1cnc(C)c(OC(C)=O)c1COC(C)=O [Example 99, [5-acetoxy-4-(acetoxymethyl)-6-methyl-3-pyridyl] methyl acetate] | C (>75% of the tested compound remaining) | C (>75% of the tested compound remaining)
15 | CCCC(=O)OCc1cnc(C)c(OC(=O)CCC)c1COC(=O)CCC [Example 100, [5-butanoyloxy-4-(butanoyloxymethyl)-6-methyl-3-pyridyl]methyl butanoate] | C (>75% of the tested compound remaining) | C (>75% of the tested compound remaining)
16 | CCCC(=O)O[C@H](C)CC(=O)OCc1cnc(C)c(OC(=O)C[C@@H](C)OC(=O)CCC)c1COC(=O)C[C@@H](C)OC(=O)CCC [Example 101, [5-[(3R)-3-butanoyloxybutanoyl]oxy-4-[[(3R)-3-butanoyloxybutanoyl]oxymethyl]-6-methyl-3-pyridyl]methyl (3R)-3-butanoyloxybutanoate] | C (>75% of the tested compound remaining) | C (>75% of the tested compound remaining)
17 | Cc1ncc(COC(=O)Cc2c[nH]c3ccccc23)c(COC(=O)Cc2c[nH]c3ccccc23)c1OC(=O)Cc1c[nH]c2ccccc12 [Example 102, [5-[2-(1H-indol-3-yl)acetyl]oxy-4-[[2-(1H-indol-3-yl)acetyl]oxymethyl]-6-methyl-3-pyridyl]methyl 2-(1H-indol-3-yl)acetate] | B (25-75% of the tested compound remaining) | C (>75% of the tested compound remaining)
18 | Cc1ncc(COC(=O)CCc2c[nH]c3ccccc23)c(COC(=O)CCc2c[nH]c3ccccc23)c1OC(=O)CCc1c[nH]c2ccccc12 [Example 103, [5-[3-(1H-indol-3-yl)propanoyloxy]-4-[3-(1H-indol-3-yl)propanoyloxymethyl]-6-methyl-3-pyridyl]methyl3-(1H-indol-3-yl)propanoate] | A (<25% of the tested compound remaining) | C (>75% of the tested compound remaining)
19 | O=C(Cc1c[nH]c2ccccc12)OC[C@@H](O)[C@H](COC(=O)Cc1c[nH]c2ccccc12)OC(=O)Cc1c[nH]c2ccccc12 [Example 104, [(2R,3S)-2-hydroxy-3,4-bis[[2-(1H-indol-3-yl)acetyl]oxy]butyl] 2-(1H-indol-3-yl)acetate] | B (25-75% of the tested compound remaining) | C (>75% of the tested compound remaining)
